Laboratory results from patent US20180344725A1, “QUINOLONE CHALCONE COMPOUNDS AND USES THEREOF” (priority 2015, published 2018).

Tests used:
MCF10CA1a = assay: SRB cell viability, isogenic breast cell lines; type: cell-based; conditions: MCF10CA1a (MCF10Ala [sic]), 72 hours; for viability at 0.03125 µM: 31.25 nM; for Cell survival rate: 0.39 μM
Procedure: FIG. 9 illustrates that CTR-17, CTR-20, CTR-21 and CTR-32 preferentially kill the fully malignant […] breast cancer cells over the pre-malignant MCF10AT1 and the non-malignant MCF-10A breast cells. Cells were treated with (A) CTR-17 at doses of 0.10, 0.39, 1.56 or 6.25 μM; (B) CTR-20 at doses of 0.10, 0.39, 1.56 or 6.25 μM; (C) CTR-21 at doses of 7.81, 15.63, 31.25, 62.5, 125 or 250 nM; or (D) CTR-32 at doses of 7.81, 15.63, 31.25, 62.5, 125 or 250 nM for 72 hours. Cell viability was determined using an SRB assay.
All of the cell lines used were purchased from ATCC and cultured in RPMI-1640 supplemented with 10% fetal bovine serum and antibiotics (100 units penicillin/100 μg/ml streptomycin), unless stated otherwise. 1845B5 and MCF-10A non-cancer breast cell lines were cultured in DME/F12 medium supplemented with 10% fetal bovine serum, antibiotics and growth factors. KB-3-1 is a human epidermal carcinoma cell line and KB-C-2 is its isogenic multidrug-resistant cell line with over-expressing ABCB1/P-gp. […] The human small cell lung carcinoma H69 cell line and its multidrug-resistant MRP1-overexpressing isogenic H69AR cell line were purchased from ATCC. The H69AR cell line was established in the presence of increasing concentrations of Adriamycin (doxorubicin). H69 cells grow as large multi-cell aggregates, making it difficult to accurately count cell numbers. Therefore, the cytotoxicity results obtained from H69AR cells were compared to SW1271, a small cell lung carcinoma cell line without a multidrug-resistant phenotype. The IL-6 dependent bortezomib-resistant ANBL6-BR cell line was further supplemented with 1 ng/ml of IL-6. The MCF10AT1 and MCF10CA1a cell lines are isogenic to the MCF10A cell line, and obtained from Dr. Valerie Weaver at the Center for Bioengineering and Tissue Regeneration, UCSF, CA, USA. MCF10AT1 is a premalignant cell line generated by transforming MCF10A with c-Ha-Ras; and MCF10CA1a was isolated by selecting malignant cells after MCF10AT1 cells were engrafted into mice (Liu & Lin 2004; Marella et al. 2009). The MCF10AT1 and MCF10CA1a cells were cultured in DMEM supplemented with 10% FBS (volume/volume). MDA-MB231TaxR cell line was generated in house by culturing MDA-MB231 cells in gradually increasing doses of paclitaxel over one-year period, and finally maintained at 100 nM paclitaxel. The drug-resistant cells were cultured in the absence of drug for at least one passage before carrying out experiments. All cells were maintained in a humidified incubator at 37° C. (5% CO2/95% air). Cell line authentication was performed using short tandem repeat (STR) profiling.
For (anti)proliferation assays, 4,000-5,000 cells/well of the 96-well clustered dish were incubated for 16 hours, as described previously (Hu et al., 2008; Skehan et al., 1990). After 16 hours, culture medium was replaced with fresh medium containing different dilutions of test compounds dissolved in DMSO. Some wells were treated with 100 μl of 10% trichloroacetic acid (TCA) as a negative control and sham (medium with dimethyl sulfoxide; DMSO) treated cells were used as a positive control. After 72 hours post-incubation, medium was removed and cells were fixed with 10% TCA at 4° C. for 1 hour. TCA was removed and cells were washed with cold tap water, and plate was air-dried, followed by addition of 50 μl of 0.4% SRB staining solution to each well. After 30 minutes incubation, SRB staining solution was removed. Cells were washed with 1% acetic acid solution, and then washed with tap water to remove unbound staining solution, followed by air-drying. 200 μl of 10 mM (pH10.5) trizma base buffer was added to each well to solubilise macromolecules. SRB stained macromolecules were determined at a 540 nm wavelength using an automated plate reader (Synergy H4 Hybrid Multi-Mode Microplate Reader, BioTek, Winooski, Vt.). Cell growth (inhibition) was calculated by the following formula: […]

purified porcine tubulin = assay: Microtubule polymerization assay; type: biochemical; conditions: 1.0 mM GTP, 1 hour at 37° C.
Procedure: The effects of the tested CTR compounds of the present disclosure on the assembly of purified tubulin were determined using a tubulin polymerization kit according to the manufacturer's instructions (Cytoskeleton Inc., Denver, Colo.). Paclitaxel (provided in the same kit), nocodazole, and colchicine (Santa Cruz, Calif.) were used as controls for the assay. The absorbent-based assay kit is based on the principle that the light scattered by the microtubules is directly proportional to the polymer mass of the microtubules when measured at 37° C. at a wavelength of 340 nm. The fluorescence-based assay kit is on the principle that fluorescent reporter molecules are incorporated into microtubules as the polymerization process being occurred. The fluorescence enhancement was measured for one hour at one-minute intervals, at the excitation of 350 nm and the emission of 430 nm. Absorbance or fluorescence was measured with an automated plate reader (Synergy H4 Hybrid Multi-Mode Microplate Reader, Bio-Tek).

In the case of CCOc1ccccc1C(=O)/C=C/c1cc2ccccc2[nH]c1=O [CTR-32, (E)-3-(3-(2-ethoxyphenyl)-3-oxoprop-1-enyl)quinolin-2(1H)-one], the viability at 0.03125 µM (MCF10CA1a) is reported as 40% and the “effect on tubulin/microtubule polymerization” value (purified porcine tubulin) is reported as “microtubule polymerization inhibitors”.

For COc1ccccc1C(=O)/C=C/c1cc2ccccc2[nH]c1=O [CTR-17, (E)-3-(3-(2-Methoxyphenyl)-3-oxoprop-1-enyl)quinolin-2(1H)-one], the Cell survival rate (MCF10CA1a) was 39% and the “effect on tubulin/microtubule polymerization” value (purified porcine tubulin) was “inhibited tubulin polymerization”.

For COc1ccc2[nH]c(=O)c(/C=C/C(=O)c3ccccc3OC)cc2c1 [CTR-20, (E)-6-Methoxy-3-(3-(2-methoxyphenyl)-3-oxoprop-1-enyl) quinolin-2(1H)-one], the Cell survival rate (MCF10CA1a) was 10% and the “effect on tubulin/microtubule polymerization” value (purified porcine tubulin) was “inhibited tubulin polymerization”.

In the case of COc1ccccc1C(=O)/C=C/c1cc2cccc(OC)c2[nH]c1=O [CTR-21, (E)-8-methoxy-3-(3-(2-methoxyphenyl)-3-oxoprop-1-enyl) quinolin-2(1H)-one], the viability at 0.03125 µM (MCF10CA1a) is reported as 10% and the “effect on tubulin/microtubule polymerization” value (purified porcine tubulin) is reported as “microtubule polymerization inhibitors”.
